Test results as given in publication PMC7022278, “Alpha-Amylase and Alpha-Glucosidase Enzyme Inhibition and Antioxidant Potential of 3-Oxolupenal and Katononic Acid Isolated from Nuxia oppositifolia” (Biomolecules, 2019).
Where “and” joins values, the source holds several entries; their conditions need not be identical. Equal values may be shown once.

Legend:
[1] = biological target: T1, Porcine α-amylase (pancreatic α-amylase) (Sus scrofa, UniProt P00690); test: Inhibition assay for amylase activity (starch/DNS); format: biochemical
T1 construct: purchased Sigma-Aldrich Co., St Louis, MO, USA
T1 sequence (P00690 16-511): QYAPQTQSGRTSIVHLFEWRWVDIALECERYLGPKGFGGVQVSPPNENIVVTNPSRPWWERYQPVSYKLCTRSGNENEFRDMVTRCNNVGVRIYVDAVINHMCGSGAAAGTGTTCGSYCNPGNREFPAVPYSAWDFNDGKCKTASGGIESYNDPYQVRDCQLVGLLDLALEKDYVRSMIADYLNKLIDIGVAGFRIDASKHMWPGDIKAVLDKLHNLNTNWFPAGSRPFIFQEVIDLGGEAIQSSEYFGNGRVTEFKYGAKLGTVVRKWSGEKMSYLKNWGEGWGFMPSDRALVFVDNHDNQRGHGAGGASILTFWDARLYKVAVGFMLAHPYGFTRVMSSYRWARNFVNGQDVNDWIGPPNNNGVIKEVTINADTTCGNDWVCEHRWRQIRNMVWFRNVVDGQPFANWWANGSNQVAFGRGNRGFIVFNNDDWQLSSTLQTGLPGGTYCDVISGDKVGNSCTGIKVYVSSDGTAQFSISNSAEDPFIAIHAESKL
Protocol: The different fractions of the plant and compounds were prepared using 5% dimethyl sulfoxide (DMSO). Fraction/compound (500 µL) of 100 µg/mL concentration (i.e., 50 µg) and 500 µL of 20 mM sodium phosphate buffer (pH 6.8) containing 20 µL of amylase (0.5 mg/mL) were incubated at 25 °C for 10 min. After pre-incubation, 500 µL of 1% starch solution in 0.02 M sodium phosphate buffer (pH 6.9) were added to each tube and incubated for 15 min. The reaction was stopped with 1.0 mL of dinitrosalicyclic acid. The test tubes were then incubated in a boiling water bath for 5 min and cooled to room temperature. The reaction mixture was then diluted after adding 10 mL distilled water, and the absorbance (Abs) was measured at 540 nm. Mean values were obtained from triplicate experiments. The control samples were prepared without any plant extracts/fractions/compounds. The percent inhibition of amylase activity was calculated using the following formula:(1) Inhibition(%)=(AbsControl−AbsCompound/AbsControl)×100 The mean values were obtained from triplicate experiments.

[2] = biological target: α-glucosidase; test: Inhibition assay for glucosidase activity (pNPG); format: biochemical; settings: for Inhibition of α-Glucosidase (IC50 value): means of three experiments ± SD; for IC50: molar value in brackets
Protocol: Glucosidase inhibition assay was carried out by following the method of Elya et al. (2008). The different fractions of the plant and compounds were prepared using 5% dimethyl sulfoxide (DMSO). […] Next, 50 μL of 5 mM p-nitrophenyl-α-D-glucopyranoside (pNPG) were added to the mixture to start the reaction. The reaction mixture was incubated at 37 °C for 60 min and stopped by adding 2.5 mL of 0.1 M Na2CO3. […] The mean values were obtained from triplicate experiments. The inhibition of glucosidase activity was calculated as percentage inhibition using Equation (1).

[3] = DPPH radical scavenging activity; settings: for DPPH Scavenging Activity (IC50 value): means of three experiments ± SD; for IC50: molar value in brackets
Protocol: The DPPH radical scavenging method measured the antioxidant activity following the method of Braca et al. (2001) with slight modification. The crude extract, fractions, and compounds at 100 µg/mL concentrations were added to 3 mL of 0.004% DPPH solution. In the control sample, methanol was added in place of test extract/fractions/compounds. The DPPH is violet in color at room temperature and the color changes to yellow by either the process of hydrogen or electron donation by antioxidants. Absorbance was measured at 520 nm after 30 min incubation. The percent inhibition was calculated using Equation (1).

[4] = ABTS radical cation scavenging activity; settings: for ABTS Scavenging Activity (IC50 value): means of three experiments ± SD; for IC50: molar value in brackets
Protocol: The ABTS radical scavenging activity of the samples was measured using the method of Re et al. (1999) with slight modification. ABTS solution in water (7 mM concentration) and an aqueous solution of potassium persulfate (2.45 mM) were prepared. The two solutions were mixed in the volume ratio 1:1 and stored in the dark 6 h at room temperature to produce the ABTS radical. The blue chromophore, which has a characteristic absorbance at 734 nm, was generated by reacting equal amount of ABTS and potassium persulfate solution. The ABTS stock solution was diluted with ethanol to an absorbance of 0.70 ± 0.02 at 734 nm and equilibrated at 30 °C. The crude extract, different fractions and isolated compounds at 100 µg/mL concentrations were mixed with 2.9 mL of diluted ABTS radical cation solution. The reaction was incubated at 30 °C for 20 min, and the absorbance at 734 nm was measured. The affinity of the test sample to quench the ABTS free radical was evaluated using Equation (1).

[5] = biological target: T2, α-amylase (Sus scrofa, UniProt P00690); test: Fluorescence quenching-based binding study, α-amylase; settings: 298 K; for Number of Binding Sites n: pH 6.8
T2 construct: purchased Sigma-Aldrich Co., St Louis, MO, USA
T2 sequence (P00690 16-511): T1 sequence (P00690 16-511)
Protocol: (§1) Proteins were excited at 295 nm and the fluorescence spectra were recorded in the 300–450 nm range. The excitation and emission slit widths were set at 5 nm each. The concentration of proteins was fixed at 2 µM while the concentration of quenchers was varied. The inner filter effect contributed by quenchers was corrected using the following relation. (2) Fcorr=Fobs×e^(Aex+Aem)/2 where Fcorr is the corrected fluorescence intensity, Fobs is the observed fluorescence intensity, Aex is the absorbance at the excitation wavelength, and Aem is the absorbance at the emission wavelength.
(§2) Observing quenching in the fluorescence intensity of a protein in the presence of a ligand is a powerful tool in determining the binding parameters such as binding affinity and Gibb’s free energy of stabilization. Here, we have followed quenching in the fluorescence intensity of α-amylase and α-glucosidase in the presence of 3-oxolupenal and katononic acid at 298 K (Figure 4 and Figure 5). […] The binding parameters for the interaction were deduced using the following Stern–Volmer and modified Stern–Volmer equations. (3) Fo/F=1+KSV[Q]=1+kqτo[Q] (4) log(Fo−F/F)=logKa+nlog[Q] where, Fo and F are the fluorescence intensities of enzymes (α-amylase and α-glucosidase) in the absence and presence of ligands (3-oxolupenal and katononic acid); KSV is the Stern–Volmer constant; [Q] is the molar concentration of ligands (3-oxolupenal and katononic acid); kq is the bimolecular quenching rate constant; τo is the lifetime of enzymes’ fluorescence in the absence of ligands (=5.71 × 10^−9 s); Ka is the binding constant; n is the number of binding sites on the enzyme.

[6] = tested on: α-glucosidase; test: Fluorescence quenching-based binding study, α-glucosidase; settings: 298 K
Protocol: as §1, §2

[7] = means of three experiments ± SD
[8] = pH 6.8, listed as Katononic Acid
[9] = pH 6.8, listed as katononic acid

DPPH Scavenging Activity (IC50 value) [3] | IC50 [3] | ABTS Scavenging Activity (IC50 value) [4] | IC50 [4] | Bimolecular Quenching Rate Constant (kq) [5, 8] | Stern–Volmer Constant (KSV) [5, 8] | Bimolecular Quenching Rate Constant (kq) [5, 9] | Stern–Volmer Constant (KSV) [5, 9] | Bimolecular Quenching Rate Constant (kq) [6, 8] | Stern–Volmer Constant (KSV) [6, 8] | Bimolecular Quenching Rate Constant (kq) [6, 9] | Stern–Volmer Constant (KSV) [6, 9] | Compound | IC50 [1, 7] | IC50 ([1]; molar value in brackets) | Inhibition of α-Glucosidase (IC50 value) [2] | IC50 [2] | Number of Binding Sites n [5]
16.6 ± 6.2 µg/mL | 75.3 µM | 28.0 ± 1.9 µg/mL | 127 µM | – | – | – | – | – | – | – | – | Cc1cc(C(C)(C)C)c(O)c(C(C)(C)C)c1 [BHT, butylated hydroxytoluene, reference compound] | – | – | – | – | –
87.5 ± 5.4 µg/mL | 192 µM | 82.7 ± 4.7 µg/mL | 182 µM | 2.77e+13 M⁻¹ s⁻¹ | 158000 M⁻¹ | ~10^13 M^−1 s^−1 | ~10^5 M^−1 | 3.59e+13 M⁻¹ s⁻¹ | 205000 M⁻¹ | ~10^13 M^−1 s^−1 | ~10^5 M^−1 | CC1(C)C(=O)CC[C@]2(C)[C@H]3CC=C4[C@@H]5C[C@](C)(C(=O)O)CC[C@]5(C)CC[C@@]4(C)[C@]3(C)CC[C@@H]12 [Katononic acid, katononic acid] | 115 µM | 119 µM and 115 µM | 88.6 ± 6.2 µg/mL | 195 µM | 0.7646

Compound | DPPH Scavenging Activity (IC50 value) [3] | IC50 [3] | ABTS Scavenging Activity (IC50 value) [4] | IC50 [4] | Bimolecular Quenching Rate Constant (kq) [5, 8] | Stern–Volmer Constant (KSV) [5, 8] | Bimolecular Quenching Rate Constant (kq) [5, 9] | Stern–Volmer Constant (KSV) [5, 9] | Bimolecular Quenching Rate Constant (kq) [6, 8] | Stern–Volmer Constant (KSV) [6, 8] | Bimolecular Quenching Rate Constant (kq) [6, 9] | Stern–Volmer Constant (KSV) [6, 9] | IC50 [1, 7] | IC50 ([1]; molar value in brackets) | Inhibition of α-Glucosidase (IC50 value) [2] | IC50 [2] | Number of Binding Sites n [5]
C=C(C=O)[C@@H]1CC[C@]2(C)CC[C@]3(C)[C@H](CC[C@@H]4[C@@]5(C)CCC(=O)C(C)(C)[C@@H]5CC[C@]43C)[C@@H]12 [3-oxolupenal] | 82.7 ± 6.7 µg/mL | 188 µM | 84.2 ± 5.1 µg/mL | 192 µM | – | – | – | – | – | – | – | – | 105 µM | 102 µM and 105 µM | 62.3 ± 2.4 µg/mL | 142 µM | 1.0865
